These results are taken from patent publication US20250346593A1, “IMIDAZO(1,2-1)PYRIDINE DERIVATIVES AS RIPK2 INHIBITORS” (Interline Therapeutics, Inc., priority 2022, published 2025).

Where two headings read alike, the source gives them in different places.

The target in experiment [1] is GST-RIPK2 fusion protein (human RIPK2 amino acids 1-310) (Homo sapiens (Human), UniProt O43353). Nature of the experiment: RIPK2 binding competition assay (TR-FRET, Tracer 199). On the technique in general: TR-FRET usually uses a lanthanide donor and a delayed reading to cut background.
GST-RIPK2 fusion protein (human RIPK2 amino acids 1-310), sequence (O43353 1-310): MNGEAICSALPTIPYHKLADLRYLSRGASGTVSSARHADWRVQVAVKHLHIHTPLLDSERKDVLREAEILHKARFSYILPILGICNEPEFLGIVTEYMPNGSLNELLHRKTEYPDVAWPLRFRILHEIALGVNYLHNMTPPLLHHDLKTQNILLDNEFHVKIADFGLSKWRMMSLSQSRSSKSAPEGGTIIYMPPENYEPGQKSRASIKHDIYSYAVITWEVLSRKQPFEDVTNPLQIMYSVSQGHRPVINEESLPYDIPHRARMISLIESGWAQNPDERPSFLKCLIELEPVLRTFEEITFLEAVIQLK
In experiment [2] the test system is NF-κB pathway (SEAP) in THP1-Dual cells. Nature of the experiment: THP-1 Dual cell SEAP assay (L18-MDP stimulated). The format is cell-based. Particulars: read-out: NFkB THP1 IC50.
Setting [3] is: read-out: RIPK2 IC50, RIPK2 binding competition assay.

The term IC50 denotes the concentration at which inhibition is half-maximal.

In the case of `CNc1cc(-c2cnc3cc(OC)c(S(=O)(=O)C(C)(C)C)cn23)cc(OC)c1OC` [Example 326, 5-(6-(tert-butylsulfonyl)-7-methoxyimidazo[1,2-a]pyridin-3-yl)-2,3-dimethoxy-N-methylaniline], the 50% inhibitory concentration (IC50) in experiment [1] fell in the range of 0.001 to 0.0025 µM; in experiment [2] (Homo sapiens, THP1-Dual), 0.05 to 0.25 µM.

As for `COc1cc2ncc(-c3cc(OC)c(N)nc3F)n2cc1S(=O)(=O)C(C)(C)C` [Example 74, 5-(6-(tert-butylsulfonyl)-7-methoxyimidazo[1,2-a]pyridin-3-yl)-6-fluoro-3-methoxypyridin-2-amine], the IC50 is 0.0025 to 0.02 µM in experiment [1] and greater than 1 µM in experiment [2] (Homo sapiens, THP1-Dual).

`CCCS(=O)(=O)N(C)c1cccc(-c2cnc3cc(OC)c(S(=O)(=O)C(C)(C)C)cn23)c1` [Example 256, N-(3-(6-(tert-butylsulfonyl)-7-methoxyimidazo[1,2-a]pyridin-3-yl)phenyl)-N-methylpropane-1-sulfonamide]: the IC50 in experiment [1] (setting [3]) was greater than 0.02 µM; in experiment [2] (Homo sapiens, THP1-Dual), greater than 1 µM.

As for `COc1cc2ncc(-c3cc(F)c(N)nc3OC(C)C)n2cc1S(=O)(=O)C(C)(C)C` [Example 113, 5-(6-(tert-butylsulfonyl)-7-methoxyimidazo[1,2-a]pyridin-3-yl)-3-fluoro-6-isopropoxypyridin-2-amine], the IC50 was greater than 0.02 µM in experiment [1] (setting [3]) and greater than 1 µM in experiment [2] (Homo sapiens, THP1-Dual).

In the case of `COc1cc2ncc(-c3ccc(OC(F)(F)F)c(N)n3)n2cc1S(=O)(=O)C(C)(C)C` [Example 334, 6-(6-(tert-butylsulfonyl)-7-methoxyimidazo[1,2-a]pyridin-3-yl)-3-(trifluoromethoxy)pyridin-2-amine], the half-inhibitory concentration (IC50) in experiment [1] (setting [3]) is greater than 0.02 µM; in experiment [2] (Homo sapiens, THP1-Dual) it was greater than 1 µM.

Take `COc1cc2ncc(-c3cc(N)c(OC)c(OC)c3)n2cc1S(=O)(=O)C(C)(C)C` [Example 47, 5-(6-(tert-butylsulfonyl)-7-methoxyimidazo[1,2-a]pyridin-3-yl)-2,3-dimethoxyaniline]: the IC50 in experiment [1] was 0.0025 to 0.02 µM; in experiment [2] (Homo sapiens, THP1-Dual), greater than 1 µM.

Consider `COc1cc2ncc(-c3cc(F)nc(N(C)C)c3)n2cc1S(=O)(=O)C(C)(C)C` [Example 186, 4-(6-(tert-butylsulfonyl)-7-methoxyimidazo[1,2-a]pyridin-3-yl)-6-fluoro-N,N-dimethylpyridin-2-amine], for which the IC50 was less than 0.001 µM in experiment [1] (setting [3]) and less than 0.05 µM in experiment [2] (Homo sapiens, THP1-Dual).

In the case of `COc1cc2ncc(-c3ccc(N)c(OC)c3F)n2cc1S(=O)(=O)C(C)(C)C` [Example 76, 4-(6-(tert-butylsulfonyl)-7-methoxyimidazo[1,2-a]pyridin-3-yl)-3-fluoro-2-methoxyaniline], the IC50 in experiment [1] (setting [3]) was greater than 0.02 µM; in experiment [2] (Homo sapiens, THP1-Dual), greater than 1 µM.

For the compound `COc1cc2ncc(-c3cc(F)cc(N)c3F)n2cc1S(=O)(=O)C(C)(C)C` [Example 38, 3-(6-(tert-butylsulfonyl)-7-methoxyimidazo[1,2-a]pyridin-3-yl)-2,5-difluoroaniline], the half-inhibitory concentration (IC50) in experiment [1] was in the range of 0.001 to 0.0025 µM; in experiment [2] (Homo sapiens, THP1-Dual), 0.05 to 0.25 µM.

For `COc1cc2ncc(-c3cc(F)nc(N[C@H](C)CO)c3)n2cc1S(=O)(=O)C(C)(C)C` [Example 221, (2R)-2-({6-fluoro-4-[7-methoxy-6-(2-methylpropane-2-sulfonyl)imidazo[1,2-a]pyridin-3-yl]pyridin-2-yl}amino)propan-1-ol], the 50% inhibitory concentration (IC50) in experiment [1] is 0.001 to 0.0025 µM; in experiment [2] (Homo sapiens, THP1-Dual) it was less than 0.05 µM.

Take `COc1cc2ncc(-c3cc(F)nc(NCCSC)c3)n2cc1S(=O)(=O)C(C)(C)C` [Example 235, 4-(6-(tert-butylsulfonyl)-7-methoxyimidazo[1,2-a]pyridin-3-yl)-6-fluoro-N-(2-(methylthio)ethyl) pyridin-2-amine]: the IC50 was 0.001 to 0.0025 µM in experiment [1] and less than 0.05 µM in experiment [2] (Homo sapiens, THP1-Dual).

Turning to `CCCS(=O)(=O)Nc1c(F)c(-c2cnc3cc(OC)c(S(=O)(=O)C(C)(C)C)cn23)cc(F)c1OC` [Example 263, N-(3-(6-(tert-butylsulfonyl)-7-methoxyimidazo[1,2-a]pyridin-3-yl)-2,5-difluoro-6-methoxyphenyl)propane-1-sulfonamide], the IC50 lay within 0.0025 to 0.02 µM in experiment [1] and 0.25 to 1 µM in experiment [2] (Homo sapiens, THP1-Dual).

For `COc1cc2ncc(-c3cc(F)nc(NCCCO)c3)n2cc1C(=O)N(C)C` [Example 248, 3-{2-fluoro-6-[(3-hydroxypropyl)amino]pyridin-4-yl}-7-methoxy-N,N-dimethylimidazo[1,2-a]pyridine-6-carboxamide], the IC50 in experiment [1] lay within 0.0025 to 0.02 µM; in experiment [2] (Homo sapiens, THP1-Dual) it was 0.05 to 0.25 µM.

Regarding `CCOc1cc2ncc(-c3cc(F)c(N)nc3F)n2cc1S(=O)(=O)C(C)C` [Example 119, 5-[6-ethoxy-5-(isopropylsulfonyl)-1,3a-diaza-3-indenyl]-3,6-difluoro-2-pyridylamine], the IC50 in experiment [1] is 0.0025 to 0.02 µM; in experiment [2] (Homo sapiens, THP1-Dual) it was greater than 1 µM.

On to `CCS(=O)(=O)Nc1cccc(-c2cnc3cc(OC)c(S(=O)(=O)C(C)(C)C)cn23)c1` [Example 276, N-(3-(6-(tert-butylsulfonyl)-7-methoxyimidazo[1,2-a]pyridin-3-yl)phenyl)ethanesulfon-amide], for which the 50% inhibitory concentration (IC50) in experiment [1] (setting [3]) lay in the range of 0.0025 to 0.02 µM; in experiment [2], 0.25 to 1 µM.

On to `COc1cc2ncc(-c3cc(F)nc(N[C@H]4CCCC[C@@H]4O)c3)n2cc1S(=O)(=O)C(C)(C)C` (single isomer, unassigned) [Example 245, trans-(15,2S or 1R,2R)-2-({6-fluoro-4-[7-methoxy-6-(2-methylpropane-2-sulfonyl)imidazo[1,2-a]pyridin-3-yl]pyridin-2-yl}amino)cyclohexan-1-ol], for which the half-maximal inhibitory concentration (IC50) in experiment [1] fell in the range of 0.0025 to 0.02 µM; in experiment [2] (Homo sapiens, THP1-Dual), 0.25 to 1 µM.

As to `COc1cc(NCCCO)cc(-c2cnc3cc(OC)c(S(=O)(=O)C(C)(C)C)cn23)n1` [compound 321, 3-((2-(6-(tert-butylsulfonyl)-7-methoxyimidazo[1,2-a]pyridin-3-yl)-6-methoxypyridin-4-yl)amino)propan-1-ol], the IC50 was greater than 0.02 µM in experiment [1] (setting [3]) and greater than 1 µM in experiment [2] (Homo sapiens, THP1-Dual).

As for `CCCS(=O)(=O)Nc1cc(-c2cnn3ccc(S(=O)(=O)C(C)(C)C)cc23)cc(OC)c1OC` [Example 139, N-(5-(5-(tert-butylsulfonyl)pyrazolo [1,5-a]pyridin-3-yl)-2,3-dimethoxyphenyl) propane-1-sulfonamide], the IC50 in experiment [1] was in the range of 0.001 to 0.0025 µM; in experiment [2] (Homo sapiens, THP1-Dual), 0.05 to 0.25 µM.

Take `COc1cc2ncc(-c3cc(F)c(OC)c(C#N)c3)n2cc1S(=O)(=O)C(C)(C)C` [Example 56, 5-(6-(tert-butylsulfonyl)-7-methoxyimidazo[1,2-a]pyridin-3-yl)-3-fluoro-2-methoxybenzonitrile]: the IC50 in experiment [1] (setting [3]) was greater than 0.02 µM; in experiment [2] (Homo sapiens, THP1-Dual), greater than 1 µM.

Turning to `COc1cc2ncc(-c3cc(F)c(OC)c(Br)c3)n2cc1S(=O)(=O)C(C)(C)C` [Example 305, 3-(3-bromo-5-fluoro-4-methoxyphenyl)-6-(tert-butylsulfonyl)-7-methoxyimidazo[1,2-a]pyridine], the half-inhibitory concentration (IC50) in experiment [1] was 0.0025 to 0.02 µM; in experiment [2] (Homo sapiens, THP1-Dual), greater than 1 µM.

As for `CCCS(=O)(=O)Nc1cc(-c2cnc3cc(OC)c(S(=O)(=O)C(C)(C)C)cn23)cnc1OC(F)F` [Example 286, N-(5-(6-(tert-butylsulfonyl)-7-methoxyimidazo[1,2-a]pyridin-3-yl)-2-(difluoromethoxy)pyridin-3-yl)propane-1-sulfonamide], the half-maximal inhibitory concentration (IC50) in experiment [1] is 0.0025 to 0.02 µM; in experiment [2] (Homo sapiens, THP1-Dual), greater than 1 µM.

For `CNc1ccnc(-c2cnc3cc(OC)c(S(=O)(=O)C(C)(C)C)cn23)c1` [Example 162, 2-(6-(tert-butylsulfonyl)-7-methoxyimidazo[1,2-a]pyridin-3-yl)-N-methylpyridin-4-amine], the IC50 in experiment [1] (setting [3]) was greater than 0.02 µM; in experiment [2] (Homo sapiens, THP1-Dual) it was greater than 1 µM.

With `CCc1ccc(-c2cnc3cc(OC)c(S(=O)(=O)C(C)(C)C)cn23)cc1NS(C)(=O)=O` [Example 143, N-(5-(6-(tert-butylsulfonyl)-7-methoxyimidazo[1,2-a]pyridin-3-yl)-2-ethylphenyl) methanesulfonamide], the IC50 in experiment [1] is 0.0025 to 0.02 µM; in experiment [2] (Homo sapiens, THP1-Dual), greater than 1 µM.

`CCCS(=O)(=O)Nc1nc(-c2cnc3cc(OC)c(S(=O)(=O)C(C)(C)C)cn23)ccc1C` [Example 163, N-(6-(6-(tert-butylsulfonyl)-7-methoxyimidazo[1,2-a]pyridin-3-yl)-3-methylpyridin-2-yl)propane-1-sulfonamide]: the IC50 was greater than 0.02 µM in experiment [1] (setting [3]) and greater than 1 µM in experiment [2] (Homo sapiens, THP1-Dual).

On to `COc1cc2ncc(-c3ccc(N)c(Cl)c3F)n2cc1S(=O)(=O)C(C)(C)C` [Example 86, 4-(6-(tert-butylsulfonyl)-7-methoxyimidazo[1,2-a]pyridin-3-yl)-2-chloro-3-fluoroaniline], for which the concentration for half-maximal inhibition (IC50) in experiment [1] is 0.0025 to 0.02 µM; in experiment [2] (Homo sapiens, THP1-Dual), greater than 1 µM.

As to `COc1cc2ncc(-c3cnc(N)c(Cl)c3)n2cc1S(=O)(=O)C(C)(C)C` [Example 22, 5-(6-(tert-butylsulfonyl)-7-methoxyimidazo[1,2-a]pyridin-3-yl)-3-chloropyridin-2-amine], the IC50 in experiment [1] is 0.0025 to 0.02 µM; in experiment [2] (Homo sapiens, THP1-Dual) it was greater than 1 µM.

On to `COc1cc2ncc(-c3cc(F)c(OC)c(NCCNC(=O)OC(C)(C)C)c3)n2cc1S(=O)(=O)C(C)(C)C` [Example 308, tert-butyl (2-((5-(6-(tert-butylsulfonyl)-7-methoxyimidazo[1,2-a]pyridin-3-yl)-3-fluoro-2-methoxyphenyl)amino)ethyl)carbamate], for which the IC50 was 0.001 to 0.0025 µM in experiment [1] and 0.05 to 0.25 µM in experiment [2] (Homo sapiens, THP1-Dual).

Take `COc1cn2ncc(-c3cc(C#N)c(N)nc3F)c2cc1S(=O)(=O)C(C)(C)C` [Example 110, 2-amino-5-(5-(tert-butylsulfonyl)-6-methoxypyrazolo[1,5-a]pyridin-3-yl)-6-fluoronicotinonitrile]: the IC50 is 0.0025 to 0.02 µM in experiment [1] and greater than 1 µM in experiment [2] (Homo sapiens, THP1-Dual).

For `COc1cn2ncc(-c3ccc(N)nc3F)c2cc1S(=O)(=O)C(C)(C)C` [Example 72, 5-(5-(tert-butylsulfonyl)-6-methoxypyrazolo[1,5-a]pyridin-3-yl)-6-fluoropyridin-2-amine], the IC50 was greater than 0.02 µM in experiment [1] (setting [3]) and greater than 1 µM in experiment [2] (Homo sapiens, THP1-Dual).
